# Assay results: article PMC9411704, “Assessment of the Carcinogenic Potential of Pretomanid in Transgenic Tg.rasH2 Mice” (International Journal of Toxicology, 2022)
# Where two headings read alike, the source gives them in different places. Marks after values point to notes of the source that are not given here.
# How the values were obtained:
# [1] = system: Rats; parameters: method as in Drug Prescribing information; conditions: ref Drug Prescribing information; cited from earlier work
# [2] = parameters: method as in Drug Prescribing information; conditions: ref Drug Prescribing information; cited from earlier work
# [3] = system: Mice; parameters: method as in Drug Prescribing information; conditions: ref Drug Prescribing information; cited from earlier work
# [4] = system: Tg.rasH2 mice; conditions: for Incidence of lung adenoma, single / Incidence of lung carcinoma / Incidence of lung adenoma, multiple / Incidence of lung tumors, combined: three IP injections of 1000 mg/kg/day urethane; for Incidence of lung adenoma, multiple / Incidence of lung tumors, combined: P < 0.01; for Mean body weight / Mean food consumption: (SD)
# Experimental: The vehicle was 0.5% carboxymethylcellulose (CMC) with 0.1% Tween 80 (v/v). The vehicle and pretomanid formulations were administered to mice by oral gavage once daily at a dosing volume of 10 mL/kg. Individual dose volumes were calculated based on each animal’s most recently recorded body weight. The dose formulations were magnetically stirred at room temperature for at least 30 minutes prior to and during dosing. The positive control was urethane in 0.9% sodium chloride and was administered via intraperitoneal injection for a total of three times. The positive control formulation was allowed to stand at room temperature for at least 30 minutes and inverted several times prior to dose administration. Aliquots (0.5 to 1.0 mL) were collected from the top, bottom, and middle of the first (week 1), interim (week 13), and last (week 25) pretomanid dose formulations to assess the accuracy of the concentration and/or homogeneity.
# Male and female Tg.rasH2 [CByB6F1-Tg(HRAS)2Jic (+/−hemizygous c-Ha-ras)] mice (n = 110/sex) approximately 5 weeks of age were assigned to the main cohort groups to assess carcinogenicity. Male and female wild type CByB6F1 mice [CByB6F1-Tg(HRAS)2Jic (−/−homozygous c-Ha-ras)] (n = 34/sex) approximately 6 weeks of age were assigned to the cohort of mice used to assess the toxicokinetics of pretomanid and its M50 metabolite. […] All mice were obtained from Taconic Biosciences (Germantown, NY). The supplier verified that the mice were murine pathogen-free and females were nulliparous and non-pregnant. At the time of dosing initiation (Day 1), the toxicokinetic mice were approximately 8 weeks of age. On Day 1 of the study, the body weights of the main cohort mice ranged from 19.2 to 25.9 grams (males) and from 15.9 to 20.4 grams (females), and the body weights of the TK cohort mice ranged from 23.4 to 30.2 grams (males) and from 17.6 to 23.5 grams (females).
# This study assessed the carcinogenic potential of pretomanid following repeated oral gavage administration once daily for 26 weeks in hemizygous Tg.rasH2 [CByB6F1-Tg(HRAS)2Jic (+/− hemizygous c-Ha-ras)] mice. This study also evaluated the TK profile of pretomanid and metabolite M50 in wild-type CByB6F1 [CByB6F1-Tg(HRAS)2Jic (−/−homozygous c-Ha-ras)] mice. The study was conducted under GLP regulations.
# For carcinogenicity assessment (main cohort), 25 mice/sex were included in the vehicle control and pretomanid-treated groups. At the time of dosing initiation (Day 1), the main cohort mice used for assessing carcinogenicity were approximately 7 weeks of age and weighed between 15.9 to 20.4 g (females) and 19.2 to 25.9 g (males). Male groups (Groups 2, 4, and 6) received pretomanid in vehicle at doses of 5, 15, and 40 mg/kg/day, respectively. Female groups (Groups 3, 5, and 7) received pretomanid in vehicle at doses of 10, 30, and 80 mg/kg/day. Positive control mice (n = 10/sex) were included in the main cohort and received three intraperitoneal injections of urethane in saline (1000 mg/kg/injection) on Days 1, 3, and 5. The test and control articles were administered at a dose volume of 10 mL/kg body weight.
# Clinical signs, body weights, and food consumption were assessed for the main cohort animals to monitor animal health and any potential toxicity from pretomanid administration. In-life measurements were recorded in Provantis™ Version 9.4.6.3 (Instem, Philadelphia, PA).
# All animals, including those in the TK cohort, were observed twice daily for morbidity and mortality. For animals in the main cohort, cage side observations were performed on the day of dosing within 2 hours after the last animal in each group was dosed (Days 1, 3, and 5 for positive control animals).
smiles,measurement,setting,value
CCN(CC)C(=O)/C(C#N)=C/c1cc(O)c(O)c([N+](=O)[O-])c1 [Entacapone],Carcinogenicity in rats,[1],Carcinogenic
same,Genotoxicity,[2],"Positive in vitro, negative in vivo"
same,Carcinogenicity in mice,[3],Not carcinogenic
"CCOC(N)=O [Positive control, urethane]","Incidence of lung adenoma, single",[4]; female,0%
same,Incidence of lung carcinoma,[4]; female,0%
same,"Incidence of lung adenoma, multiple",[4]; female,100%*
same,"Incidence of lung tumors, combined",[4]; female,100%*
same,Mean body weight,"[4]; female, urethane 1000 mg/kg IP Days 1, 3, 5, study day 1",17.89 (0.57) Grams
same,Mean body weight,"[4]; female, urethane 1000 mg/kg IP Days 1, 3, 5, study day 29",19.81 (0.58) Grams
same,Mean body weight,"[4]; female, urethane 1000 mg/kg IP Days 1, 3, 5, study day 57",22.11 (0.68) Grams
same,Mean food consumption,"[4]; female, urethane 1000 mg/kg IP Days 1, 3, 5, study days 1-8",3.313 (1.048) Grams/Day
same,Mean food consumption,"[4]; female, urethane 1000 mg/kg IP Days 1, 3, 5, study days 29-36",6.218 (1.222) Grams/Day
same,Mean food consumption,"[4]; female, urethane 1000 mg/kg IP Days 1, 3, 5, study days 57-64",4.210 (0.524) Grams/Day
same,"Incidence of lung adenoma, single",[4]; male,0%
same,Incidence of lung carcinoma,[4]; male,0%
same,"Incidence of lung adenoma, multiple",[4]; male,100%*
same,"Incidence of lung tumors, combined",[4]; male,100%*
same,Mean body weight,"[4]; male, urethane 1000 mg/kg IP Days 1, 3, 5, study day 1",21.99 (0.71) Grams
same,Mean body weight,"[4]; male, urethane 1000 mg/kg IP Days 1, 3, 5, study day 29",24.81 (1.41) Grams
same,Mean body weight,"[4]; male, urethane 1000 mg/kg IP Days 1, 3, 5, study day 57",27.73 (1.74) Grams
same,Mean food consumption,"[4]; male, urethane 1000 mg/kg IP Days 1, 3, 5, study days 1-8",2.894 (0.461) Grams/Day
same,Mean food consumption,"[4]; male, urethane 1000 mg/kg IP Days 1, 3, 5, study days 29-36",4.044 (0.374) Grams/Day
same,Mean food consumption,"[4]; male, urethane 1000 mg/kg IP Days 1, 3, 5, study days 57-64",3.956 (0.359) Grams/Day
same,Clinical signs,"[4]; urethane 1000 mg/kg IP Days 1, 3, 5",ataxia and decreased motor activity
same,Body weight change,"[4]; urethane 1000 mg/kg IP, first week of the study",weight loss
same,Incidence of alveolar bronchiolar adenomas,"[4]; urethane, each sex, P < 0.01 vs vehicle control",100%
O=C(Cn1ccnc1[N+](=O)[O-])NCc1ccccc1 [Benznidazole],Genotoxicity,[2],Positive in vitro and in vivo
Cc1ncc([N+](=O)[O-])n1CCO [Metronidazole],Genotoxicity,[2],"Positive in vitro, negative in vivo"
O=C1CN(/N=C/c2ccc([N+](=O)[O-])o2)C(=O)N1 [Nitrofurantion],Carcinogenicity in rats,[1],"Not carcinogenic in Holtzman rats or Sprague-Dawley rats, carcinogenic in male F344/N rats"
same,Genotoxicity,[2],"Positive in vitro, negative in vivo"
same,Carcinogenicity in mice,[3],"Not carcinogenic in Swiss or BDF mice, carcinogenic in female B6C3F1 mice"
